ChEMBL document CHEMBL4507320, “Data for DCP probe NVS-MALT1” (2021)

Tests used:
[1] = target: RAF proto-oncogene serine/threonine-protein kinase (Homo sapiens) (UniProt P04049); details: Compound concentration 1000.0 nM
[2] = target: Calcium/calmodulin-dependent protein kinase kinase 1 (Homo sapiens) (UniProt Q8N5S9); details: Compound concentration 1000.0 nM
[3] = target: Inhibitor of nuclear factor kappa-B kinase subunit beta (Homo sapiens) (UniProt O14920); details: Compound concentration 1000.0 nM
Sequence of Inhibitor of nuclear factor kappa-B kinase subunit beta (Homo sapiens) (O14920 whole entry): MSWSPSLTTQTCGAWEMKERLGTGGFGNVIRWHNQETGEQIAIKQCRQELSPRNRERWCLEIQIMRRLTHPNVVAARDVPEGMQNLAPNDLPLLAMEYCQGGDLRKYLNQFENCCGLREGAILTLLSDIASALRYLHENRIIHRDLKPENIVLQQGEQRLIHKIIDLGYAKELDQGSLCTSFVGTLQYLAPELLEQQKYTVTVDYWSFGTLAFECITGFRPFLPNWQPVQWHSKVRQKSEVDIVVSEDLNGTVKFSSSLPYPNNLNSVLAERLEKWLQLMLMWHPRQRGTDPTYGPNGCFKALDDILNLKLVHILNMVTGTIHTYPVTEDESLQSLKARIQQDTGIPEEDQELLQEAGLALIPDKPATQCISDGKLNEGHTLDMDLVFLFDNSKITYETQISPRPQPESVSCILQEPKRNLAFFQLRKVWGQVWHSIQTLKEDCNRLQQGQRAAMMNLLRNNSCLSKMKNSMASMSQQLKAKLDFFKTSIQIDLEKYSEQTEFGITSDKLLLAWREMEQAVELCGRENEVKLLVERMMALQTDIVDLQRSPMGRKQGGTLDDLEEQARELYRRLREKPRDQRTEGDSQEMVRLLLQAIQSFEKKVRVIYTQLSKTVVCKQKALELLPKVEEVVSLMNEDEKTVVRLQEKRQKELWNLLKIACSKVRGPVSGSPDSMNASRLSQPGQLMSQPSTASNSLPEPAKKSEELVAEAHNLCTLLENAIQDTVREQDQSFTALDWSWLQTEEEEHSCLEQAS

[4] = target: SRSF protein kinase 2 (Homo sapiens) (UniProt P78362); details: Compound concentration 1000.0 nM
Sequence of SRSF protein kinase 2 (Homo sapiens) (P78362 whole entry, looked up): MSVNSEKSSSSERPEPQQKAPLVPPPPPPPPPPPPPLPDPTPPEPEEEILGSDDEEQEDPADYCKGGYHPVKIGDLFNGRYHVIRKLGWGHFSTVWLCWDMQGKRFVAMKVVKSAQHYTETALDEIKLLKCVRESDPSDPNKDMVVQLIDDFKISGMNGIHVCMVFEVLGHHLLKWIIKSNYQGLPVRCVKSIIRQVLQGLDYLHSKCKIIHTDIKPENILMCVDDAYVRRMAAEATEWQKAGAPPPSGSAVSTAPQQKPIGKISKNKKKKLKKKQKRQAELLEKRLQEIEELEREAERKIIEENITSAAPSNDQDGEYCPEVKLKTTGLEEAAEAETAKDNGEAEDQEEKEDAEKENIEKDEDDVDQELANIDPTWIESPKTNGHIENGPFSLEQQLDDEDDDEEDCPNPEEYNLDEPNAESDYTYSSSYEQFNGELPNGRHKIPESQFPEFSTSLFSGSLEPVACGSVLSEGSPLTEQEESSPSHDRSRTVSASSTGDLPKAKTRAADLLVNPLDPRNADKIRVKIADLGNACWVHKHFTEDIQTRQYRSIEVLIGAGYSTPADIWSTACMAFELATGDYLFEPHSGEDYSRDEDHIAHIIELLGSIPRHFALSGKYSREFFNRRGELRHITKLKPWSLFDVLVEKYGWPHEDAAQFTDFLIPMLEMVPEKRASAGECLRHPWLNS

[5] = target: Bone morphogenetic protein receptor type-1B (Homo sapiens) (UniProt O00238); details: Compound concentration 1000.0 nM
Sequence of Bone morphogenetic protein receptor type-1B (Homo sapiens) (O00238 whole entry): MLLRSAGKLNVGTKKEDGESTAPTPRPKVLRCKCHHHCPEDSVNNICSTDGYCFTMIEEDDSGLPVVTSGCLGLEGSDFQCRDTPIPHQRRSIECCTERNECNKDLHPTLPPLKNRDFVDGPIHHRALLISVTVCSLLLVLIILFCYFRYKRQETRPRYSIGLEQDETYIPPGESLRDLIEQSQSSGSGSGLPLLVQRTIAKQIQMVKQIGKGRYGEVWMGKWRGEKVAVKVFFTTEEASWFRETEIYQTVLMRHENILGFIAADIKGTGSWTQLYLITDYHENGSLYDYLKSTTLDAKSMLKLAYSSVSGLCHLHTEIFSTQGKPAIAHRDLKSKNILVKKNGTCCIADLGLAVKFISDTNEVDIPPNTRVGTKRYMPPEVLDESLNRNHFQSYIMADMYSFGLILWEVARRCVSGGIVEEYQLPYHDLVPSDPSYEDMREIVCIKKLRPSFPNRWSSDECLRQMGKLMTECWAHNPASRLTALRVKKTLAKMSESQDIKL

[6] = target: Alpha-2A adrenergic receptor (Homo sapiens) (UniProt P08913); details: Compound concentration 10.0 uM
[7] = target: Serine/threonine-protein kinase 36 (Homo sapiens) (UniProt Q9NRP7); details: Compound concentration 1000.0 nM
[8] = target: Cyclin-dependent kinase 8 (Homo sapiens) (UniProt P49336); details: Compound concentration 1000.0 nM
[9] = target: Serine/threonine-protein kinase 10 (Homo sapiens) (UniProt O94804); details: Compound concentration 1000.0 nM
[10] = target: Mitogen-activated protein kinase kinase kinase kinase 5 (Homo sapiens) (UniProt Q9Y4K4); details: Compound concentration 1000.0 nM
[11] = target: Atypical kinase COQ8B, mitochondrial (Homo sapiens) (UniProt Q96D53); details: Compound concentration 1000.0 nM
[12] = target: Cyclin-dependent kinase 11B (Homo sapiens) (UniProt P21127); details: Compound concentration 1000.0 nM
[13] = target: MAP/microtubule affinity-regulating kinase 3 (Homo sapiens) (UniProt P27448); details: Compound concentration 1000.0 nM
[14] = target: Mitogen-activated protein kinase 1 (Homo sapiens) (UniProt P28482); details: Compound concentration 1000.0 nM
[15] = target: Mitogen-activated protein kinase kinase kinase 3 (Homo sapiens) (UniProt Q99759); details: Compound concentration 1000.0 nM
[16] = tested on: Receptor-type tyrosine-protein kinase FLT3 (Homo sapiens), P36888 [D835Y]; details: Compound concentration 1000.0 nM
[17] = target: Serine/threonine-protein kinase 3 (Homo sapiens) (UniProt Q13188); details: Compound concentration 1000.0 nM
[18] = target: Inhibitor of nuclear factor kappa-B kinase subunit alpha (Homo sapiens) (UniProt O15111); details: Compound concentration 1000.0 nM
[19] = target: 5-hydroxytryptamine receptor 2B (Homo sapiens) (UniProt P41595); details: Compound concentration 10.0 uM
[20] = target: Serine/threonine-protein kinase MARK1 (Homo sapiens) (UniProt Q9P0L2); details: Compound concentration 1000.0 nM
[21] = target: Ephrin type-B receptor 6 (Homo sapiens) (UniProt O15197); details: Compound concentration 1000.0 nM
[22] = target: Serine/threonine-protein kinase mTOR (Homo sapiens) (UniProt P42345); details: Compound concentration 1000.0 nM
[23] = target: Homeodomain-interacting protein kinase 2 (Homo sapiens) (UniProt Q9H2X6); details: Compound concentration 1000.0 nM
[24] = target: 5'-AMP-activated protein kinase catalytic subunit alpha-1 (Homo sapiens) (UniProt Q13131); details: Compound concentration 1000.0 nM
Sequence of 5'-AMP-activated protein kinase catalytic subunit alpha-1 (Homo sapiens) (Q13131 whole entry, looked up): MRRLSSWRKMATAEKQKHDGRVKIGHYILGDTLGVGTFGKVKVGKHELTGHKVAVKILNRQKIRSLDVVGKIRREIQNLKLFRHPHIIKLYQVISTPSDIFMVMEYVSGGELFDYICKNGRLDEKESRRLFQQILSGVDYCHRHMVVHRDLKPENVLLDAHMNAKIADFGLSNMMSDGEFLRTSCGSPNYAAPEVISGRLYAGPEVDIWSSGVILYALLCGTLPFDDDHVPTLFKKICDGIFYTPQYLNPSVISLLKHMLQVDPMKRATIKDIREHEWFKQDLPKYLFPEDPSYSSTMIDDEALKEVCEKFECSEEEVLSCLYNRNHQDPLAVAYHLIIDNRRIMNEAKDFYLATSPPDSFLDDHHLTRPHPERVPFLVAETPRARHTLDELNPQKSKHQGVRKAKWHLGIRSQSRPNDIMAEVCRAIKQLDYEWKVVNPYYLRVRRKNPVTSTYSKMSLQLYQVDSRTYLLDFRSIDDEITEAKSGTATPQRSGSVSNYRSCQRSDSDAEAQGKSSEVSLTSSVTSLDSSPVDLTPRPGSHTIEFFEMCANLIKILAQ

[25] = target: Alpha-2C adrenergic receptor (Homo sapiens) (UniProt P18825); details: Compound concentration 10.0 uM
[26] = target: Ribosomal protein S6 kinase beta-1 (Homo sapiens) (UniProt P23443); details: Compound concentration 1000.0 nM
[27] = target: Phosphatidylinositol 5-phosphate 4-kinase type-2 beta (Homo sapiens) (UniProt P78356); details: Compound concentration 1000.0 nM
[28] = target: Tyrosine-protein kinase CSK (Homo sapiens) (UniProt P41240); details: Compound concentration 1000.0 nM
[29] = target: Tyrosine-protein kinase HCK (Homo sapiens) (UniProt P08631); details: Compound concentration 1000.0 nM
[30] = target: Serine/threonine-protein kinase PAK 5 (Homo sapiens) (UniProt Q9P286); details: Compound concentration 1000.0 nM
[31] = target: Mitogen-activated protein kinase 9 (Homo sapiens) (UniProt P45984); details: Compound concentration 1000.0 nM
[32] = target: Wee1-like protein kinase (Homo sapiens) (UniProt P30291); details: Compound concentration 1000.0 nM
Sequence of Wee1-like protein kinase (Homo sapiens) (P30291 whole entry, looked up): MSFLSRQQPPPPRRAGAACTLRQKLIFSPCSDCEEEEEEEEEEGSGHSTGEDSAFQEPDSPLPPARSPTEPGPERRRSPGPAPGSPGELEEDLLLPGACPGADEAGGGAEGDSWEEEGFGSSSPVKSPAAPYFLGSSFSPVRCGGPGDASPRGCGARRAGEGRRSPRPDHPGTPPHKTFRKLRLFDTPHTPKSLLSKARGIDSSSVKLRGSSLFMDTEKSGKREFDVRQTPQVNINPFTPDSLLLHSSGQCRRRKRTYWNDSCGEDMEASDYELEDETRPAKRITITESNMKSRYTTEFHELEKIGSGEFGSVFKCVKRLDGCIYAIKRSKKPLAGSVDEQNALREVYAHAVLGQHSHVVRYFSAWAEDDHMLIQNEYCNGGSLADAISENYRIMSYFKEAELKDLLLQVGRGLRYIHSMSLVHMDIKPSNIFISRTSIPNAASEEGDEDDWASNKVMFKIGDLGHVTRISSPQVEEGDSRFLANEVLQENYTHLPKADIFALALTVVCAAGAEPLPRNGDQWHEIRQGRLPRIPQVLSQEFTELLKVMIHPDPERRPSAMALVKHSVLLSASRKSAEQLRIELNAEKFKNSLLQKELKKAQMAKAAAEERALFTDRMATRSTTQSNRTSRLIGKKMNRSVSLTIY

[33] = target: Aurora kinase A (Homo sapiens) (UniProt O14965); details: Compound concentration 1000.0 nM
[34] = target: Muscarinic acetylcholine receptor M5 (Homo sapiens) (UniProt P08912); details: Compound concentration 10.0 uM
[35] = target: Serine/threonine-protein kinase WNK3 (Homo sapiens) (UniProt Q9BYP7); details: Compound concentration 1000.0 nM
[36] = tested on: Tyrosine-protein kinase ABL1 (Homo sapiens), P00519 [F317I]; details: Compound concentration 1000.0 nM
[37] = target: Serine/threonine-protein kinase 35 (Homo sapiens) (UniProt Q8TDR2); details: Compound concentration 1000.0 nM
[38] = target: Dual specificity protein kinase CLK4 (Homo sapiens) (UniProt Q9HAZ1); details: Compound concentration 1000.0 nM
[39] = target: Dual specificity mitogen-activated protein kinase kinase 7 (Homo sapiens) (UniProt O14733); details: Compound concentration 1000.0 nM
Sequence of Dual specificity mitogen-activated protein kinase kinase 7 (Homo sapiens) (O14733 whole entry): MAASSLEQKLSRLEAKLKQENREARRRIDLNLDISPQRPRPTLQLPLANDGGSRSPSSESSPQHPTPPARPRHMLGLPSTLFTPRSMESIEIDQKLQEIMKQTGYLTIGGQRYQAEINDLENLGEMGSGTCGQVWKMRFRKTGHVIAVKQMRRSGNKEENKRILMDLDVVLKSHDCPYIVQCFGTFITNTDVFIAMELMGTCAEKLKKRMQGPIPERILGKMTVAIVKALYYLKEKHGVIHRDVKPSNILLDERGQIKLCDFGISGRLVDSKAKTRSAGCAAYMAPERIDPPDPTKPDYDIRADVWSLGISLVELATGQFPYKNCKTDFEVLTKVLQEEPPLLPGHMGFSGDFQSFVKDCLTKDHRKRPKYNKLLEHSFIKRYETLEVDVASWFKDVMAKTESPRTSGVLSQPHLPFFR

[40] = target: Dual specificity tyrosine-phosphorylation-regulated kinase 1B (Homo sapiens) (UniProt Q9Y463); details: Compound concentration 1000.0 nM
[41] = target: Mitogen-activated protein kinase 3 (Homo sapiens) (UniProt P27361); details: Compound concentration 1000.0 nM
Sequence of Mitogen-activated protein kinase 3 (Homo sapiens) (P27361 whole entry): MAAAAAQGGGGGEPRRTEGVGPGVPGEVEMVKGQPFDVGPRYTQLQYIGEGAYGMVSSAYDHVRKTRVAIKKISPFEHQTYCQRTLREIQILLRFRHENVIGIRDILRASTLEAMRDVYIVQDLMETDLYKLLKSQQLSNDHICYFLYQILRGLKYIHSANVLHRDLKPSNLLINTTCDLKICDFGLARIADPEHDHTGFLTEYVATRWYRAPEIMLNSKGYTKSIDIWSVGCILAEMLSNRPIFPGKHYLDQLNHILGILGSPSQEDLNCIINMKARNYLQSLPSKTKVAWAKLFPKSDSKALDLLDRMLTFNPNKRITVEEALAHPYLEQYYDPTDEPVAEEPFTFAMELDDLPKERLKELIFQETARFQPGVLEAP

[42] = tested on: Mast/stem cell growth factor receptor Kit (Homo sapiens), P10721 [D816V]; details: Compound concentration 1000.0 nM
Sequence of Mast/stem cell growth factor receptor Kit (Homo sapiens), P10721 [D816V] (P10721 whole entry D816V): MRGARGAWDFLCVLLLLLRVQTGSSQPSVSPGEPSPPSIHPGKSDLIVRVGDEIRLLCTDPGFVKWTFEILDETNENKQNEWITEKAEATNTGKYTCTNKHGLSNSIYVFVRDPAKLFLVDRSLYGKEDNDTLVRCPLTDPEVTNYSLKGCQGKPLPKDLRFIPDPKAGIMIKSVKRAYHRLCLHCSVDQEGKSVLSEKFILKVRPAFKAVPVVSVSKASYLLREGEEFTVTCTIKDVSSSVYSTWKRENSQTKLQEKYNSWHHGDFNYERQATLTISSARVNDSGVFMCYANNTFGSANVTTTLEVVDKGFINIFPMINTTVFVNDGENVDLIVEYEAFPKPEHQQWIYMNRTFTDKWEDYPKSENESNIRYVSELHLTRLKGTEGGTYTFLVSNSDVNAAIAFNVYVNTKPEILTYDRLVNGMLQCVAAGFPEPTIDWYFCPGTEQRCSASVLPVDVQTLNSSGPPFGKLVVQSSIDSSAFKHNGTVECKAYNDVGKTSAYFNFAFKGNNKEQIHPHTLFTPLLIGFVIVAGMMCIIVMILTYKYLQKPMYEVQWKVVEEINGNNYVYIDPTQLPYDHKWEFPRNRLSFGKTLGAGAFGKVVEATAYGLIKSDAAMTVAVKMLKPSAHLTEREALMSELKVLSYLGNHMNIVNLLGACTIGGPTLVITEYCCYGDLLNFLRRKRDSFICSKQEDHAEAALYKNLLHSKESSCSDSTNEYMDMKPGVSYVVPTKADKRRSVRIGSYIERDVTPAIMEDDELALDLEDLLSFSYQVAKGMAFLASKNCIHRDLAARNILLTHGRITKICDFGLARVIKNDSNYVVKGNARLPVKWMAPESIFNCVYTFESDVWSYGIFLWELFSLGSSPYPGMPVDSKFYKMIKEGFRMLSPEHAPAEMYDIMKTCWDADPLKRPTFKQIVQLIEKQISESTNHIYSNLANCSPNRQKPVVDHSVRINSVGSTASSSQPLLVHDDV

[43] = target: Serine/threonine-protein kinase TAO1 (Homo sapiens) (UniProt Q7L7X3); details: Compound concentration 1000.0 nM
[44] = target: SNF-related serine/threonine-protein kinase (Homo sapiens) (UniProt Q9NRH2); details: Compound concentration 1000.0 nM
[45] = target: Epidermal growth factor receptor (Homo sapiens) (UniProt P00533); details: Compound concentration 1000.0 nM

Which residual activity [1] does the source give for `CO[C@@H](C)c1c(Nc2ccc([C@@H](N(C)C(=O)C3CCS(=O)(=O)CC3)C(F)(F)F)cc2)cnc2cc(Cl)nn12` [NVS-MALT1-C] here?
The residual activity was 100%.

What about the residual activity [2] of the same compound?
Its residual activity is 98%.

What about the residual activity [3] of the same compound?
Its residual activity is 100%.

And the residual activity [4]?
Its residual activity is 99%.

What about the residual activity [5] of the same compound?
Its residual activity is 100%.

What about the inhibition [6] of the same compound?
The inhibition was 5.1%.

And the residual activity [7]?
Its residual activity is 94%.

What about the residual activity [8] of the same compound?
Its residual activity is 96%.

What about the residual activity [9] of the same compound?
The residual activity was 98%.

What about the residual activity [10] of the same compound?
The residual activity was 100%.

And the residual activity [11]?
The residual activity was 96%.

What about the residual activity [12] of the same compound?
Its residual activity is 100%.

What about the residual activity [13] of the same compound?
Its residual activity is 100%.

And the residual activity [14]?
The residual activity was 100%.

And the residual activity [15]?
Its residual activity is 100%.

What about the residual activity [16] of the same compound?
Its residual activity is 42%.

What about the residual activity [17] of the same compound?
The residual activity was 100%.

What about the residual activity [18] of the same compound?
Its residual activity is 100%.

And the inhibition [19]?
Its inhibition is 9.74%.

What about the residual activity [20] of the same compound?
Its residual activity is 81%.

What about the residual activity [21] of the same compound?
Its residual activity is 100%.

And the residual activity [22]?
Its residual activity is 100%.

And the residual activity [23]?
The residual activity was 100%.

What about the residual activity [24] of the same compound?
Its residual activity is 92%.

What about the inhibition [25] of the same compound?
The inhibition was 1.97%.

And the residual activity [26]?
Its residual activity is 90%.

What about the residual activity [27] of the same compound?
The residual activity was 100%.

What about the residual activity [28] of the same compound?
Its residual activity is 100%.

And the residual activity [29]?
The residual activity was 100%.

And the residual activity [30]?
The residual activity was 100%.

And the residual activity [31]?
Its residual activity is 76%.

What about the residual activity [32] of the same compound?
Its residual activity is 92%.

And the residual activity [33]?
The residual activity was 100%.

What about the inhibition [34] of the same compound?
Its inhibition is 7.57%.

And the residual activity [35]?
Its residual activity is 84%.

And the residual activity [36]?
The residual activity was 100%.

And the residual activity [37]?
Its residual activity is 90%.

And the residual activity [38]?
Its residual activity is 92%.

What about the residual activity [39] of the same compound?
The residual activity was 100%.

What about the residual activity [40] of the same compound?
Its residual activity is 75%.

And the residual activity [41]?
The residual activity was 86%.

What about the residual activity [42] of the same compound?
The residual activity was 99%.

And the residual activity [43]?
Its residual activity is 100%.

And the residual activity [44]?
The residual activity was 100%.

And the residual activity [45]?
Its residual activity is 95%.

What does the source list for `CO[C@@H](C)c1c(Nc2ccc([C@H](N(C)C(=O)C3CCS(=O)(=O)CC3)C(F)(F)F)cc2)cnc2cc(Cl)nn12` [NVS-MALT1]?
residual activity [1]: 97%; residual activity [2]: 80%; residual activity [3]: 100%; residual activity [4]: 100%; residual activity [5]: 100%; inhibition [6]: 14.6%; residual activity [7]: 91%; residual activity [8]: 39%; residual activity [9]: 100%; residual activity [10]: 88%; residual activity [11]: 77%; residual activity [12]: 88%; residual activity [13]: 100%; residual activity [14]: 100%; residual activity [15]: 73%; residual activity [16]: 59%; residual activity [17]: 92%; residual activity [18]: 100%; inhibition [19]: -3.94%; residual activity [20]: 69%; residual activity [21]: 100%; residual activity [22]: 100%; residual activity [23]: 100%; residual activity [24]: 99%; inhibition [25]: 4.48%; residual activity [26]: 100%; residual activity [27]: 100%; residual activity [28]: 100%; residual activity [29]: 100%; residual activity [30]: 100%; residual activity [31]: 92%; residual activity [32]: 88%; residual activity [33]: 100%; inhibition [34]: 14.6%; residual activity [35]: 95%; residual activity [36]: 100%; residual activity [37]: 80%; residual activity [38]: 94%; residual activity [39]: 100%; residual activity [40]: 78%; residual activity [41]: 100%; residual activity [42]: 96%; residual activity [43]: 100%; residual activity [44]: 100%; residual activity [45]: 93%
